Measurements as given in patent US20170320870A1 (Medical Research Council Technology, priority 2009, published 2017).
Structures can show the parent of a compound that is named as a salt.

Target: T1, LRRK2 wild type (recombinant human, catalytic domain amino acids 970-2527, GST-tagged) (Homo sapiens, UniProt Q5S007)
T1 construct: The wild type used was recombinant human, catalytic domain (amino acids 970-2527) GST-tagged, expressed in insect cells; GST; purchased Invitrogen Corporation PV4873; host or cells: insect cells
Test: LRRK2 wild type protein kinase assay ([γ-33P] ATP, peptide substrate […]), IC50
Type: biochemical
Details: LRRK2 (variant not given); read-out: Potency score, LRRK2 IC50
How it was run: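 IC50 derived from duplicate 10-point titrations, with 33P incorporation into a 100 μM peptide counted after P81 filter capture. Roughly 5 nM unactivated kinase reacted with Mg/[γ-33P]ATP for 180 min at room temperature (~21 °C), pH 7.5 Tris buffer containing 10 mM MgCl2, EGTA and DTT; acid-quenched.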

T1 sequence (Q5S007 970-2527): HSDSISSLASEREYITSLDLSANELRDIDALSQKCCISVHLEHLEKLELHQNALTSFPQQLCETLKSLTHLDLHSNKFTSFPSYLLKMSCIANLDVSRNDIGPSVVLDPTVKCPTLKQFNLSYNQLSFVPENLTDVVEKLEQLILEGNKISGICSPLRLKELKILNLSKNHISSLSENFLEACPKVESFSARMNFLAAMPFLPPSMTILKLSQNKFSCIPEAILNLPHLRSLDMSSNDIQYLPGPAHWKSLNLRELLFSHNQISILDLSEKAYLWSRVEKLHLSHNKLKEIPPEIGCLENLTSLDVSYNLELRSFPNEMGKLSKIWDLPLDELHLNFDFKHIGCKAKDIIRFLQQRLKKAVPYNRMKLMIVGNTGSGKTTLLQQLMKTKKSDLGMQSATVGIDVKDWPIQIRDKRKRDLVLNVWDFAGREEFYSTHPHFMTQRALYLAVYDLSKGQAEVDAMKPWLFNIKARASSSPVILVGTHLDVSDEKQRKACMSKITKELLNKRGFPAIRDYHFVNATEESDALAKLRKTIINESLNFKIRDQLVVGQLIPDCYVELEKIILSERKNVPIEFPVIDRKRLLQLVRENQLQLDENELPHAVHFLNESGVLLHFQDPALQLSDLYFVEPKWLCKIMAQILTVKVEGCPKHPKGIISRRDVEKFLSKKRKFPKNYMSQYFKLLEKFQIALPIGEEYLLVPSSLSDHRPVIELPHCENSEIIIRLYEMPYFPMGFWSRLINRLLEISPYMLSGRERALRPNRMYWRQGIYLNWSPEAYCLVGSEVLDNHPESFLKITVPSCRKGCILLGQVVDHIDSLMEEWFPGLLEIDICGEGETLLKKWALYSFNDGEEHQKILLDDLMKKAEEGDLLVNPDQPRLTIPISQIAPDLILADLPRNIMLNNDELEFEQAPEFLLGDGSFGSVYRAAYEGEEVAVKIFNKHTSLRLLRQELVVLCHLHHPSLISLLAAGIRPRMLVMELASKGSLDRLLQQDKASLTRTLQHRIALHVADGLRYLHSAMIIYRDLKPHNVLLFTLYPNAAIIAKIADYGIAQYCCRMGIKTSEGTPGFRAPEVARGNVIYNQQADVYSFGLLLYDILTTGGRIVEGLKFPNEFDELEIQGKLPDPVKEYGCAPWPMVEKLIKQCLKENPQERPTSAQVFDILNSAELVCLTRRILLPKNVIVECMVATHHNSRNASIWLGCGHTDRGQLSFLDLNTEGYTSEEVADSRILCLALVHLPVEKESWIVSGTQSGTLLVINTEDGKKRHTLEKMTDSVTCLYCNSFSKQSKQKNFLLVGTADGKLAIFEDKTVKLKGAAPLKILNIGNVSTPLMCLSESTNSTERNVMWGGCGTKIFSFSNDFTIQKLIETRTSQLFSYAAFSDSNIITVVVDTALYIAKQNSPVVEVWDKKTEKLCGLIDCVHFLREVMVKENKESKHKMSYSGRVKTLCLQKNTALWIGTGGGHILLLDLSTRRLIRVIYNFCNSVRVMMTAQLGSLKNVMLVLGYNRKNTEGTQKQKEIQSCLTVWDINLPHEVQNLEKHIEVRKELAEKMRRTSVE

Row | SMILES | IC50 [nM]
1 | c1cc2[nH]nc(CCC3CCNCC3)c2c(NC2CCCCC2)n1 [Example 217, Cyclohexyl-[3-(2-piperidin-4-yl-ethyl)-1H-pyrazolo[4,3-c]pyridin-4-yl]-amine] | 1000 to 10000
2 | O=C(CCc1n[nH]c2ccnc(NC3CCCCC3)c12)N1CCCC(Cc2ccccc2)C1 (stereo not shown) [Example 194, 1-(3-Benzyl-piperidin-1-yl)-3-(4-cyclohexylamino-1H-pyrazolo[4,3-c]pyridin-3-yl)-propan-1-one] | < 100
3 | CC1CN(C(=O)CCc2n[nH]c3ccnc(NC4CCCCC4)c23)C1 [Example 241, 3-(4-Cyclohexyl-amino-1H-pyrazolo [4,3-c]pyridin-3-yl)-1-(3-methyl-azetidin-1-yl)-propan-1-one] | < 100
4 | O=C(CCc1n[nH]c2ccnc(NC3CCCCC3)c12)N1CCCC(Oc2cccnc2)C1 (stereo not shown) [Example 195, 3-(4-Cyclohexylamino-1H-pyrazolo[4,3-c]pyridin-3-yl)-1-[3-(pyridin-3-yloxy)-piperidin-1-yl]-propan-1-one] | 100 to 1000
5 | Cc1n[nH]c2ccnc(NCc3ccc(C#N)cc3)c12 [Example 327, 4-[(3-Methyl-1H-pyrazolo[4,3-c]pyridin-4-ylamino)-methyl]-benzonitrile] | 1000 to 10000
6 | Cc1n[nH]c2ccnc(Nc3ccc(C(=O)N(C)C)cc3)c12 [Example 74, N,N-Dimethyl-4-(3-methyl-1H-pyrazolo[4,3-c]pyridin-4-ylamino)-benzamide] | 100 to 1000
7 | Cc1n[nH]c2ccnc(Nc3cccc(-c4nnco4)c3)c12 [Example 353] | 1000 to 10000
8 | O=C(CCc1n[nH]c2ccnc(NC3CCCCC3)c12)N1CCCC1 [Example 173, 3-(4-Cyclohexylamino-1H-pyrazolo[4,3-c]pyridin-3-yl)-1-pyrrolidin-1-yl-propan-1-one] | 100 to 1000
9 | Cc1n[nH]c2ccnc(NC(C)C)c12 [Example 36, Isopropyl-(3-methyl-1H-pyrazolo[4,3-c]pyridin-4-yl)-amine] | 100 to 1000
10 | Cc1n[nH]c2ccnc(OCC3CCCCC3)c12 [Example 278, 4-Cyclohexyl-methoxy-3-methyl-1H-pyrazolo[4,3-c] pyridine] | 100 to 1000
11 | Cc1n[nH]c2ccnc(N3CCN(C)CC3)c12 [Example 5, 3-Methyl-4-(4-methyl-piperazin-1-yl)-1H-pyrazolo[4,3-c]pyridine] | 1000 to 10000
12 | FC(F)(F)c1ccc(-c2n[nH]c3ccnc(NC4CCCCC4)c23)cc1 [Example 157] | 1000 to 10000
13 | Cc1n[nH]c2ccnc(Nc3cccc(C#N)c3)c12 [Example 347, 3-(3-Methyl-1H-pyrazolo[4,3-c]pyridin-4-ylamino)-benzonitrile] | 100 to 1000
14 | Cc1n[nH]c2ccnc(Nc3ccc(C(=O)NC4CCCC4)cc3)c12 [Example 106, N-Cyclopentyl-4-(3-methyl-1H-pyrazolo[4,3-c]pyridin-4-ylamino)-benzamide] | 1000 to 10000
15 | O=C(CCc1n[nH]c2ccnc(NC3CCCCC3)c12)N1CCCCC1 [Example 169, 3-(4-Cyclohexylamino-1H-pyrazolo[4,3-c]pyridin-3-yl)-1-piperidin-1-yl-propan-1-one] | 100 to 1000
16 | Cc1n[nH]c2ccnc(NCc3ccc(Cl)cc3)c12 [Example 1, (4-Chloro-benzyl)-(3-methyl-1H-pyrazolo[4,3-c]pyridin-4-yl)-amine] | 1000 to 10000
17 | Cc1n[nH]c2ccnc(OCc3ccccc3)c12 [Example 290, 4-Benzyloxy-3-methyl-1H-pyrazolo[4,3-c]pyridine] | 100 to 1000
18 | Cc1n[nH]c2ccnc(NCCC(C)C)c12 [Example 343, (3-Methyl-butyl)-(3-methyl-1H-pyrazolo[4,3-c]pyridin-4-yl)-amine] | 1000 to 10000
19 | Cc1n[nH]c2ccnc(N3CCOCC3)c12 [Example 10, 3-Methyl-4-morpholin-4-yl-1H-pyrazolo[4,3-c]pyridine] | 1000 to 10000
20 | CC(C)n1cc(-c2n[nH]c3ccnc(NC4CCCCC4)c23)cn1 [Example 235, Cyclohexyl-[3-(1-isopropyl-1H-pyrazol-4-yl)-1H-pyrazolo[4,3-c]pyridin-4-yl]-amine] | < 100
21 | Cn1cnc(C(=O)Nc2ccc(CCc3n[nH]c4ccnc(NC5CCCCC5)c34)cc2)c1 [Example 269, 1-Methyl-1H-imidazole-4-carboxylic acid {4-[2-(4-cyclohexylamino-1H-pyrazolo[4,3-c]pyridin-3-yl)-ethyl]-phenyl}-amide] | < 100
22 | COc1ccc(CNc2nccc3[nH]nc(C)c23)c(OC)c1 [Example 97, (2,4-Dimethoxy-benzyl)-(3-methyl-1H-pyrazolo[4,3-c]pyridin-4-yl)-amine] | 1000 to 10000
23 | Cc1n[nH]c2ccnc(Nc3ccc(F)c(Cl)c3)c12 [Example 307, (3-Chloro-4-fluoro-phenyl)-(3-methyl-1H-pyrazolo[4,3-c]pyridin-4-yl)-amine] | 100 to 1000

Row | SMILES | IC50 [nM]
24 | O=C(CCc1n[nH]c2ccnc(NC3CCCCC3)c12)N1CCN(Cc2ccc(F)cc2F)CC1 [Example 179, 3-(4-Cyclohexylamino-1H-pyrazolo[4,3-c]pyridin-3-yl)-1-[4-(2,4-difluoro-benzyl)-piperazin-1-yl]-propan-1-one] | 100 to 1000
25 | Cc1n[nH]c2ccnc(NCC(C)C)c12 [Example 24, Isobutyl-(3-methyl-1H-pyrazolo[4,3-c]pyridin-4-yl)-amine] | 100 to 1000
26 | Cc1n[nH]c2ccnc(Nc3cncc(-c4ccc(C#N)cc4)c3)c12 [Example 60, 4-[5-(3-Methyl-1H-pyrazolo[4,3-c]pyridin-4-ylamino)-pyridin-3-yl]-benzonitrile] | 100 to 1000
27 | COc1ccc(-c2n[nH]c3ccnc(NC4CCCCC4)c23)cn1 [Example 142, Cyclohexyl-[3-(6-methoxy-pyridin-3-yl)-1H-pyrazolo[4,3-c]pyridin-4-yl]-amine] | 1000 to 10000
28 | Cc1n[nH]c2ccnc(NCCc3c[nH]c4ccccc34)c12 [Example 342, [2-(1H-Indol-3-yl)-ethyl]-(3-methyl-1H-pyrazolo[4,3-c]pyridin-4-yl)-amine] | 1000 to 10000
29 | Cc1n[nH]c2ccnc(NCC3CC3)c12 [Example 18, Cyclopropylmethyl-(3-methyl-1H-pyrazolo[4,3-c]pyridin-4-yl)-amine] | 1000 to 10000
30 | O=C(CCc1n[nH]c2ccnc(NC3CCCCC3)c12)N1CC(c2ccccc2)C1 [Example 242, 3-(4-Cyclohexylamino-1H-pyrazolo[4,3-c]pyridin-3-yl)-1-(3-phenyl-azetidin-1-yl)-propan-1-one] | 100 to 1000
31 | Cc1n[nH]c2ccnc(O[C@H]3CC[C@H](C)CC3)c12 [Example 294, Trans-3-Methyl-4-(4-methyl-cyclohexyloxy)-1H-pyrazolo[4,3-c]pyridine] | < 100
32 | Cn1nccc1NC(=O)c1ccc(CCc2n[nH]c3ccnc(NC4CCCCC4)c23)cc1 [Example 252, 4-[2-(4-Cyclohexylamino-1H-pyrazolo[4,3-c]pyridin-3-yl)-ethyl]-N-(2-methyl-2H-pyrazol-3-yl)-benzamide] | 100 to 1000
33 | Cc1n[nH]c2ccnc(N[C@H]3CC[C@H](O)CC3)c12 [Example 26, Trans-4-(3-Methyl-1H-pyrazolo[4,3-c]pyridin-4-ylamino)-cyclohexanol] | 100 to 1000
34 | COCCNc1nccc2[nH]nc(C)c12 [Example 6, (2-Methoxy-ethyl)-(3-methyl-1H-pyrazolo[4,3-c]pyridin-4-yl)-amine] | 1000 to 10000
35 | Cc1n[nH]c2ccnc(Nc3ccccc3Cl)c12 [Example 309, (2-Chloro-phenyl)-(3-methyl-1H-pyrazolo[4,3-c]pyridin-4-yl)-amine] | 100 to 1000
36 | Cc1n[nH]c2ccnc(Nc3ccc(Cl)cc3)c12 [Example 310, (4-Chloro-phenyl)-(3-methyl-1H-pyrazolo[4,3-c]pyridin-4-yl)-amine] | 100 to 1000
37 | Cc1n[nH]c2ccnc(O[C@@H]3CCOC3)c12 [Example 297, 3-Methyl-4-[(R)-(tetrahydro-furan-3-yl)oxy]-1H-pyrazolo[4,3-c]pyridine] | 100 to 1000
38 | CN(C)C(=O)CCc1n[nH]c2ccnc(NC3CCCCC3)c12 [Example 212, 3-(4-Cyclohexylamino-1H-pyrazolo[4,3-c]pyridin-3-yl)-N,N-dimethyl-propionamide] | 100 to 1000
39 | Cc1n[nH]c2ccnc(Nc3ccc(N4CCOCC4)cc3)c12 [Example 85, (3-Methyl-1H-pyrazolo[4,3-c]pyridin-4-yl)-(4-morpholin-4-yl-phenyl)-amine] | 100 to 1000
40 | Cc1n[nH]c2ccnc(C3CCCC3)c12 [Example 127, 4-Cyclopentyl-3-methyl-1H-pyrazolo[4,3-c]pyridine] | 100 to 1000
41 | COc1ccc(C(=O)N2CCC(Nc3nccc4[nH]nc(C)c34)CC2)cc1 [Example 105, (4-Methoxy-phenyl)-[4-(3-methyl-1H-pyrazolo[4,3-c]pyridin-4-ylamino)-piperidin-1-yl]-methanone] | 1000 to 10000
42 | CC[C@H](C)COc1nccc2[nH]nc(C)c12 [Example 284, 3-Methyl-4-((S)-2-methyl-butoxy)-1H-pyrazolo[4,3-c]pyridine] | < 100
43 | C[C@@H]1CCCN(C(=O)CCc2n[nH]c3ccnc(NC4CCCCC4)c23)C1 [Example 243, 3-(4-Cyclohexylamino-1H-pyrazolo[4,3-c]pyridin-3-yl)-1-((R)-3-methyl-piperidin-1-yl)-propan-1-one] | < 100
44 | Cc1n[nH]c2ccnc(Nc3ccc(-n4cncn4)cc3)c12 [Example 96, (3-Methyl-1H-pyrazolo[4,3-c]pyridin-4-yl)-(4-1,2,4-triazol-1-yl-phenyl)-amine hydrochloride salt] | 100 to 1000
45 | Cc1n[nH]c2ccnc(Nc3cccc(Br)c3)c12 [Example 67, (3-Bromo-phenyl)-(3-methyl-1H-pyrazolo[4,3-c]pyridin-4-yl)-amine] | 100 to 1000
46 | Cc1ccc(-c2n[nH]c3ccnc(NC4CCCCC4)c23)cc1 [Example 148, Cyclohexyl-(3-p-tolyl-1H-pyrazolo[4,3-c]pyridin-4-yl)-amine] | 100 to 1000
